Measured values: patent US20090118135A1, “METHODS AND COMPOUNDS FOR REGULATING APOPTOSIS” (The Burnham Institute, priority 2007, published 2009)

Target: T1, GST-Bfl-1 (Homo sapiens, UniProt Q16548)
T1 construct: lacking their C-terminal transmembrane domains (about the last 20 amino acids) (“ΔTM”); made in house; host or cells: XL-1 Blue E. coli, pGEX 4T-1
T1 sequence (Q16548 1-155 limits assumed): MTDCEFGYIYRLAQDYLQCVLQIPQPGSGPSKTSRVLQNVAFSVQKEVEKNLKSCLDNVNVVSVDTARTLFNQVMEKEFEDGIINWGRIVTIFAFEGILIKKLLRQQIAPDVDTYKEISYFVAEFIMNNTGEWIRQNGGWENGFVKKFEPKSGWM
Test: Bfl-1/FITC-Bid BH3 competitive fluorescence polarization assay
Format: binding
Details: primary HTS hits, MLSCN library (PubChem SIDs), Table 5B
Method: A FPA was performed to determine the binding affinity of FITC-Bid BH3 peptide to Bcl-2 proteins. […] IC50 determinations were performed using GraphPad Prism software (GraphPad, Inc., San Diego, Calif.). FPA competition assays were performed using the same procedure described above, except that 100 nM of GST-Bfl-1 protein in a volume of 45 μl was incubated with 5 μl (50 μM) test compounds in DMSO per well for 30 min prior to addition of 50 μl (5 nM) FITC-Bid BH3 peptide. The final DMSO concentration was 5% when the reactions brought to fall volume of 100 μl. Fluorescence polarization was measured after 10 min. Compounds that reduced the fluorescence polarization by 50% were considered hits.

Row | Compound | % Activity | FRatio
1 | Cc1ccc(OCC(=O)Nc2ccc(N3CCCC3)cc2)cc1C [Compound 7974807] | 90.6% | 0.76
2 | COc1ccc(NC(=O)C2CCN(c3nc(C)nc4c3CCC4)CC2)cc1 [Compound 852694] | 66.2% | 1.37
3 | Cc1cccc(OCC(=O)Nc2ccc(S(=O)(=O)N3CCCC3)cc2)c1 [Compound 7973703] | 79.2% | 0.82
4 | CCOc1ccc(C(=O)Nc2ccc(N3CCN(C)CC3)cc2)cc1Br [Compound 4256635] | 70% | 0.53
5 | CCOc1ccc(C(=O)OCC(=O)NCc2ccco2)cc1OCC [Compound 3714498] | 71.4% | 1
6 | C=CCn1c(SCc2cc(=O)n3ccsc3n2)nnc1C1CCCCC1 [Compound 3716212] | 54.8% | 0.6
7 | O=C(COC(=O)c1cccs1)NCc1ccco1 [Compound 3712480] | 79.7% | 0.96
8 | COCCn1c(SCC(=O)Nc2ncc(Cl)c(C)c2Cl)nc2ccccc21 [Compound 3717339] | 64.7% | 0.94
9 | ClC1=CCC2CN(CCN3CCCCC3)CC2C1 (centres unmarked) [Compound 860752] | 67.7% | 0.79
10 | O=C(N/N=C1\C(=O)c2cccc3cccc1c23)c1ccc(Cl)cc1 [Compound 16953557] | 68.6% | 0.84
11 | O=c1c([N+](=O)[O-])cc(C(F)(F)F)cn1Cc1cccc(Cl)c1 [Compound 17402915] | 89.8% | 0.61
12 | Cn1c(SCC(=O)Nc2ccc3nc(SCC(=O)N4CCCC4)sc3c2)nnc1-c1ccc(N)cc1 [Compound 17386645] | 53.9% | 0.79
13 | Cc1ccc(-n2nc3ccc(NC(=O)c4ccc5c(c4)OCO5)cc3n2)cc1 [Compound 14732083] | 69.5% | 0.83
14 | COc1ccc(OC)c(NC(=O)CCN2CCC(C)CC2)c1 [Compound 846609] | 73% | 0.65
15 | O=C1c2ccccc2C(=O)N1CC#CCN1CCN(C2CCCCC2)CC1 [Compound 856035] | 56.3% | 0.7
16 | Cc1cc(-c2csc(N)n2)c(C)n1C [Compound 14746541] | 69.5% | 0.94
17 | CCCCNC(=O)COC(=O)c1ccc(Cl)c(S(=O)(=O)N2CCCC2)c1 [Compound 16952426] | 54.8% | 0.92
18 | O=C(COC(=O)c1ccc(S(=O)(=O)NCc2ccco2)cc1)NCC1CCCCC1 [Compound 16953469] | 60.3% | 1.01
19 | O=C(Nc1ccccc1C(=O)O)c1ccccc1 [Compound 14723278] | 85.4% | 0.87
20 | O=C(NCc1ccccn1)c1ccc2nc(-c3ccco3)c(-c3ccco3)nc2c1 [Compound 4245216] | 107.1% | 1.18
21 | CN1CCC2=C(C1)SC1C2C(NCc2ccco2)=Nc2nnnn21 (centres unmarked) [Compound 864825] | 96.4% | 1.26

Row | Compound | % Activity | FRatio
22 | CN(C)c1ccc(NC(=O)CN2C(=O)CN=C(c3ccccc3)c3cc(Cl)ccc32)cc1 [Compound 14738707] | 66.4% | 0.84
23 | O=C(c1cnccn1)N1CCc2ccccc21 [Compound 3713383] | 80.1% | 0.72
24 | Cc1cc(N)ccc1N1CCCC1 [Compound 14744983] | 86.5% | 0.71
25 | COc1ccc(C2C=C(c3ccc(Br)cc3)Nc3nc(NS(C)(=O)=O)nn32)cc1 (centres unmarked) [Compound 17401655] | 54.6% | 1.46
26 | Cc1cc(C)c(I)c(S(=O)(=O)N2CCC(C(=O)OCC(=O)N3c4ccccc4NC(=O)C3(C)C)CC2)c1C [Compound 16952989] | 72.9% | 0.93
27 | O=C(O)CCc1ccc(-c2cccs2)n1CCC(=O)O [Compound 848328] | 74.6% | 0.59
28 | Cc1cc2cc(CN(Cc3ccco3)S(=O)(=O)c3c(C)ccc4nsnc34)c(O)nc2cc1C [Compound 14720830] | 56% | 1.29
29 | Cc1c(NC(=O)c2cc3nc(-c4ccccc4)cc(C)n3n2)c(=O)n(-c2ccccc2)n1C [Compound 844334] | 63.5% | 0.88
30 | COc1ccccc1NCCC(=O)OCC(=O)NCc1ccco1 [Compound 3712399] | 85.2% | 0.95
31 | COc1ccc(NC(=O)c2noc3c2CCC3)cc1 [Compound 14733727] | 102.1% | 0.93
32 | Cc1c(Cl)cnc(NC(=O)COC(=O)C(NC(=O)c2ccco2)C(C)C)c1Cl (centres unmarked) [Compound 3711777] | 108.1% | 0.66
33 | CC(=O)C1=C(O)C(=O)N(Cc2ccccc2)C1c1ccco1 (centres unmarked) [Compound 851207] | 52.6% | 0.52
34 | Cn1c(C(C#N)C2=C(Cl)C(=O)N(c3ccccc3)C2=O)nc2ccccc21 (centres unmarked) [Compound 3716185] | 89.8% | 0.68
35 | COc1ccc(NC(=O)c2cnn3c(C(F)(F)F)cc(-c4ccco4)nc23)cc1OC [Compound 7974080] | 52% | 0.9
36 | O=[N+]([O-])c1cc(/C=N/Nc2nccs2)ccc1O [Compound 14746394] | 107% | 0.75
37 | COc1ccc(C(=O)Nc2ccc(N3CCCC3)cc2)cc1 [Compound 14739290] | 78.8% | 0.85
38 | c1coc(-c2nn3c(-c4ccco4)nnc3s2)c1 [Compound 853208] | 60.4% | 0.83
39 | O=C(CCCCCn1c(=S)[nH]c2ccccc2c1=O)NCc1ccc2c(c1)OCO2 [Compound 17402018] | 52.9% | 1.37
40 | COCc1cc(C2SCC(=O)Nc3c2c(O)nn3C(C)C)ccc1OC (centres unmarked) [Compound 4258907] | 67.1% | 1.2
41 | Cc1cccn2c(=O)c3cc(C(=O)NCC4CCCO4)c(=N)n(Cc4cccnc4)c3nc12 (centres unmarked) [Compound 849581] | 60.6% | 0.89
42 | CCn1c(CSc2nc3ccccc3s2)nnc1SCC(=O)c1ccc(O)c(O)c1 [Compound 17388455] | 74.1% | 0.8

Row | Compound | % Activity | FRatio
43 | CN(C)S(=O)(=O)N(CC(=O)N(Cc1ccccc1)Cc1ccccc1)c1ccccc1 [Compound 14736293] | 90.4% | 0.73
44 | CCCCCc1nnc(NC(=O)Cc2cccs2)s1 [Compound 4259217] | 69.2% | 0.51
45 | O=C(NCCN1CCCCCC1)C1CCC(CNS(=O)(=O)c2cccc3cccnc23)CC1 (centres unmarked) [Compound 7969436] | 51.8% | 0.97
46 | O=S(=O)(c1ccccc1)N(CC(O)CN1CCCCC1)c1ccccc1 (centres unmarked) [Compound 859970] | 53.9% | 0.98
47 | N#C/C(C(N)=O)=c1/ccc2c(c1)N1C3=C(CCCC3)CC3CCCCC31N=2 (centres unmarked) [Compound 856266] | 74.3% | 0.62
48 | C=CCNS(=O)(=O)c1nc(C)c(Cl)c(C)c1C#N [Compound 4251530] | 69.9% | 0.59
49 | O=C(COC(=O)C1CCN(S(=O)(=O)c2cc([N+](=O)[O-])ccc2Cl)CC1)Nc1ncc(Cl)cc1Cl [Compound 14744641] | 75.9% | 0.93
50 | C=CCn1c(SCC(=O)c2ccc(O)c(O)c2)nnc1-c1ccccc1OC [Compound 863840] | 54.2% | 0.88
51 | COc1ccccc1-c1nnc2sc(-c3cnccn3)nn12 [Compound 4265558] | 75.3% | 0.59
52 | COc1ccccc1N1CCN(C(=O)c2cc3c(s2)CCC3)CC1 [Compound 14746697] | 74.1% | 0.9
53 | Cn1c(=O)n(C)c2cc(S(=O)(=O)Nc3ccccc3O)ccc21 [Compound 14723355] | 52.9% | 0.98
54 | CC(=N)/C(C#N)=C(/O)CSc1nnc(NC(C)C)s1 [Compound 3717601] | 84.1% | 0.47
55 | O=C(Nc1ccccc1N1CCOCC1)c1cc(-c2ccco2)nc2ccccc12 [Compound 14744733] | 61.4% | 0.83
56 | O=C(Nc1cccnc1)c1ccc(S(=O)(=O)N2CCCCCC2)cc1 [Compound 14744015] | 88.4% | 0.84
57 | O=C(c1cc2c(s1)CCC2)N1CCN(c2ccccc2)CC1 [Compound 14745443] | 71.6% | 0.73
58 | Cc1ccc(N2CN=c3s/c(=C\c4cccnc4)c(=O)n3C2)cc1 [Compound 858221] | 78.6% | 0.88
59 | COc1cc(-c2nnc(SCc3cc(=O)oc4cc(O)c(O)cc34)o2)cc(OC)c1OC [Compound 17385711] | 68.3% | 0.7
60 | COc1ccc(C(N)CCc2ccc(C)o2)cc1 (centres unmarked) [Compound 4244526] | 67.6% | 0.84
61 | Oc1ccc(C2=Nn3c(nnc3-c3ccco3)SC2)cc1O [Compound 17401638] | 56.6% | 0.82
